From patent US20250346600A1, “TRICYCLIC DERIVATIVES AND RELATED USES” (MOMA Therapeutics, Inc., priority 2023, published 2025)

Assays:
[1] = target: T1, Full length WRN protein (aa 2-1432) (Homo sapiens (Human), UniProt Q14191); experiment: WRN ATPase ADP-Glo biochemical assay, Assay Format A (10 μM ATP); conditions: 0.25 nM WRN, 100 nM C6.18 ssDNA, 30 min preincubation, read-out: ATPase ADPGlo AC50 (uM)- Assay Format A
Method in brief: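 ADP-Glo luminescence measured hydrolysis of ATP by purified, baculovirus-expressed N-terminally tagged full-length WRN. Enzyme (0.5 nM) was preincubated 30 min with compound, then 200 nM ssDNA C6.18 plus 20 μM ATP were added (pre-mix levels) for 30 min at RT. IC50s come from four-parameter fits, geometric mean of at least two trials.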

[2] = target: T1, Full length WRN protein (aa 2-1432); experiment: WRN ATPase ADP-Glo biochemical assay, Assay Format B (100 μM ATP); conditions: 0.25 nM WRN, 100 nM C6.18 ssDNA, 60 min preincubation, read-out: ATPase ADPGlo AC50 (uM)- Assay Format B
HCT116 cells = experiment: HCT116 (MSI) 7 day viability, CellTiter Glo; assay type: cell-based; conditions: Homo sapiens, HCT-116, 168 h, 7 days, read-out: HCT116 (MSI) Viability 7 Day Abs AC50
Method in brief: (§1)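 10 mM DMSO stocks serially diluted 3-fold, 10 steps; cells added (HCT116 50/well, HT29 500/well); 7 d, 37 °C, 5% CO2; CellTiter Glo 20 min RT; luminescence.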

HT29 cells = experiment: HT29 (MSS) 7 day viability, CellTiter Glo; assay type: cell-based; conditions: Homo sapiens, HT-29, 168 h, 7 days, read-out: HT29 (MSS) Viability 7 Day CTGAbs AC50
Method in brief: as §1

T1 sequence (Q14191 2-1432): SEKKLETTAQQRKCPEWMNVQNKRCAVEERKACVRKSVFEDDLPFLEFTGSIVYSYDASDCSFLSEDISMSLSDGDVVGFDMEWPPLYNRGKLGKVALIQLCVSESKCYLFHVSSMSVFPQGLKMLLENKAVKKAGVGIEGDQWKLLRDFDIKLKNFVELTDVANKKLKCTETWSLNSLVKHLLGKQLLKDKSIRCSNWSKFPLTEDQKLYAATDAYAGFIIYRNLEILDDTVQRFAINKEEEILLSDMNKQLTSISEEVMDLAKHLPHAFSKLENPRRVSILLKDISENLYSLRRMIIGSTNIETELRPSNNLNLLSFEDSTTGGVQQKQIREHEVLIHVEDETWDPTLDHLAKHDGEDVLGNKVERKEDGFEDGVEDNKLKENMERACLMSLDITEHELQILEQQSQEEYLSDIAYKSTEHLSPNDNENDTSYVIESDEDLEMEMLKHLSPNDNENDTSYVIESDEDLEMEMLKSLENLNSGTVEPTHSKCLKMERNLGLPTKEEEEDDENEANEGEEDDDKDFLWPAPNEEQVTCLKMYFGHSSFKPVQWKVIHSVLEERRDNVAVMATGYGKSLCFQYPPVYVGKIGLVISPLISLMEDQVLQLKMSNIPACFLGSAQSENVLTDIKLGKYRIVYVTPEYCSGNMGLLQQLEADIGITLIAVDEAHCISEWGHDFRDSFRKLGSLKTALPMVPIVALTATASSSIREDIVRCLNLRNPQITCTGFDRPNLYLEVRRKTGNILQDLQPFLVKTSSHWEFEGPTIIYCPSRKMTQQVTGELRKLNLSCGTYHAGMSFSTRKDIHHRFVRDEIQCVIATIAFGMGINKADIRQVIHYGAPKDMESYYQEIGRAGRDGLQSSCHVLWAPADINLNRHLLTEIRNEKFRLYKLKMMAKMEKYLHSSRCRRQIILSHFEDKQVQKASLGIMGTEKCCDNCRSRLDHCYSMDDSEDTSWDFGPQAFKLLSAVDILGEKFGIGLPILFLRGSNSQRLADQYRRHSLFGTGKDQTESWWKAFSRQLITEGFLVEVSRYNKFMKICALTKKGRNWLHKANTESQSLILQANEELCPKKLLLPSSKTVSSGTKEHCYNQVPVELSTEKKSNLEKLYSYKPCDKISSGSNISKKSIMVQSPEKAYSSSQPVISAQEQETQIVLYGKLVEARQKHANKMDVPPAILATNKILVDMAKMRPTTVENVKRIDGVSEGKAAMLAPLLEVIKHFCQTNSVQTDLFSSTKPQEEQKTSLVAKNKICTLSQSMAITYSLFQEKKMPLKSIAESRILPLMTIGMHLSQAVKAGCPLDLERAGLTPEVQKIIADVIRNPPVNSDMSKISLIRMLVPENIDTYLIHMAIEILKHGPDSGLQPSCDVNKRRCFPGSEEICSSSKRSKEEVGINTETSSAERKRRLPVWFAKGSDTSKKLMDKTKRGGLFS

Row | SMILES | AC50 [1] | AC50 [2] | AC50 (HCT116 cells) | AC50 (HT29 cells)
1 | C=CC(=O)N1CCc2nn(-c3ccc(C45CC(C4)C5)cc3)c3c2C(C1)N(C(=O)c1ccc(Br)c2[nH]cnc12)CC3 (stereo not drawn) [Compound 4, 1-(2-(4-(bicyclo[1.1.1]pentan-1-yl)phenyl)-5-(7-bromo-1H-benzo[d]imidazole-4-carbonyl)-2,3,4,5,5a,6,8,9-octahydro-7H-1,2,5,7-tetraazabenzo[cd]azulen-7-yl)prop-2-en-1-one] | < 0.0015 µM | 0.015 to 0.055 µM | 0.001 to 0.1 µM | > 3 µM
2 | C=C(F)C(=O)N1CCc2nn(-c3ccc(C(C)C)cc3)c3c2C(C1)N(C(=O)c1ccc(Br)c2[nH]cnc12)CC3 (stereo not drawn) [Compound 17, 1-(5-(7-bromo-1H-benzo[d]imidazole-4-carbonyl)-2-(4-isopropylphenyl)-2,3,4,5,5a,6,8,9-octahydro-7H-1,2,5,7-tetraazabenzo[cd]azulen-7-yl)-2-fluoroprop-2-en-1-one] | 0.015 to 0.055 µM | > 0.055 µM | > 1 µM | > 3 µM
3 | C=CC(=O)N1CC(C)Oc2nn(-c3ccc(C(C)C)cc3)c3c2C(C1)N(C(=O)c1ccc(Br)c2[nH]cnc12)CC3 (stereo not drawn) [Compound 52, 1-(5-(7-bromo-1H-benzo[d]imidazole-4-carbonyl)-2-(4-isopropylphenyl)-9-methyl-2,3,4,5,5a,6,8,9-octahydro-7H-10-oxa-1,2,5,7-tetraazacycloocta[cd]inden-7-yl)prop-2-en-1-one] | 0.005 to 0.015 µM | > 0.055 µM | 0.25 to 0.5 µM | > 3 µM
4 | C=CC(=O)N1CCOc2nn(-c3ccc(C45CC(C4)C5)cc3)c3c2C(C1)N(C(=O)c1ccc(Br)c2[nH]cnc12)CC3 (stereo not drawn) [Compound 43, 1-(2-(4-(bicyclo[1.1.1]pentan-1-yl)phenyl)-5-(7-bromo-1H-benzo[d]imidazole-4-carbonyl)-2,3,4,5,5a,6,8,9-octahydro-7H-10-oxa-1,2,5,7-tetraazacycloocta[cd]inden-7-yl)prop-2-en-1-one] | < 0.0015 µM | 0.005 to 0.015 µM | 0.001 to 0.1 µM | > 3 µM
5 | C=CC(=O)N1CCOc2nn(-c3ccc(C4CCC4)cc3)c3c2C(C1)N(C(=O)c1ccc(Br)c2[nH]cnc12)CC3 (stereo not drawn) [Compound 41, 1-(5-(7-bromo-1H-benzo[d]imidazole-4-carbonyl)-2-(4-cyclobutylphenyl)-2,3,4,5,5a,6,8,9-octahydro-7H-10-oxa-1,2,5,7-tetraazacycloocta[cd]inden-7-yl)prop-2-en-1-one] | 0.0015 to 0.005 µM | 0.015 to 0.055 µM | 0.001 to 0.1 µM | > 3 µM
6 | C=CC(=O)N1CCOc2nn(-c3ccc(C4CCC4)cc3O)c3c2C(C1)N(C(=O)c1ccc2c(Br)n[nH]c2c1)CC3 (stereo not drawn) [Compound 40, 1-(5-(3-bromo-1H-indazole-6-carbonyl)-2-(4-cyclobutyl-2-hydroxyphenyl)-2,3,4,5,5a,6,8,9-octahydro-7H-10-oxa-1,2,5,7-tetraazacycloocta[cd]inden-7-yl)prop-2-en-1-one] | < 0.0015 µM | 0.015 to 0.055 µM | 0.001 to 0.1 µM | > 3 µM
7 | C=CC(=O)N1CCc2nn(-c3ccc(C4CCC4)c(F)c3)c3c2C(C1)N(C(=O)c1cnc(C(F)(F)F)c(O)c1)CC3 (stereo not drawn) [Compound 66, 1-(2-(4-cyclobutyl-3-fluorophenyl)-5-(5-hydroxy-6-(trifluoromethyl)nicotinoyl)-2,3,4,5,5a,6,8,9-octahydro-7H-1,2,5,7-tetraazabenzo[cd]azulen-7-yl)prop-2-en-1-one] | < 0.0015 µM | 0.005 to 0.015 µM | 0.001 to 0.1 µM | > 3 µM
8 | C=CC(=O)N1CCc2nc(-c3ccc(C(C)C)cc3)n3c2C(C1)N(C(=O)c1ccc(Br)c2[nH]cnc12)CC3 (stereo not drawn) [Compound 38, 1-(5-(7-bromo-1H-benzo[d]imidazole-4-carbonyl)-2-(4-isopropylphenyl)-4,5,5a,6,8,9-hexahydro-1,2a,5,7-tetraazabenzo[cd]azulen-7(3H)-yl)prop-2-en-1-one] | < 0.0015 µM | 0.005 to 0.015 µM | 0.001 to 0.1 µM | > 3 µM
9 | C=CC(=O)N1CCc2nn(-c3ccc(C(C)C)cc3)c3c2C(C1)N(C(=O)c1ccc(Br)c2ncn(CCOC)c12)CC3 (stereo not drawn) [Compound 73, 1-(5-(4-bromo-1-(2-methoxyethyl)-1H-benzo[d]imidazole-7-carbonyl)-2-(4-isopropylphenyl)-2,3,4,5,5a,6,8,9-octahydro-7H-1,2,5,7-tetraazabenzo[cd]azulen-7-yl)prop-2-en-1-one] | 0.0015 to 0.005 µM | 0.015 to 0.055 µM | 0.1 to 0.25 µM | > 3 µM
10 | C=CC(=O)N1CCc2nn(-c3ccc(C(C)C)cc3)c3c2C(C1)N(C(=O)c1cnc(C(F)(F)F)c(OC2CNC2)c1)CC3 (stereo not drawn) [Compound 60, 1-(5-(5-(azetidin-3-yloxy)-6-(trifluoromethyl)nicotinoyl)-2-(4-isopropylphenyl)-2,3,4,5,5a,6,8,9-octahydro-7H-1,2,5,7-tetraazabenzo[cd]azulen-7-yl)prop-2-en-1-one] | 0.005 to 0.015 µM | > 0.055 µM | > 1 µM | > 3 µM
11 | C=CC(=O)N1CCc2nn(-c3ccc(C(F)(F)F)cc3O)c3c2C(C1)N(C(=O)c1ccc(Br)c2[nH]cnc12)CC3 (stereo not drawn) [Compound 3, 1-(5-(7-bromo-1H-benzo[d]imidazole-4-carbonyl)-2-(2-hydroxy-4-(trifluoromethyl)phenyl)-2,3,4,5,5a,6,8,9-octahydro-7H-1,2,5,7-tetraazabenzo[cd]azulen-7-yl)prop-2-en-1-one] | 0.0015 to 0.005 µM | 0.015 to 0.055 µM | 0.001 to 0.1 µM | > 3 µM

Further lines, with some results ahead:

Row | AC50 [1] | AC50 [2] | SMILES | AC50 (HCT116 cells) | AC50 (HT29 cells)
12 | < 0.0015 µM | 0.015 to 0.055 µM | C=CC(=O)N1CCc2nn(-c3ccc(C45CC(C4)C5)cc3O)c3c2C(C1)N(C(=O)c1cnc(C(F)(F)F)c(O)c1)CC3 (stereo not drawn) [Compound 92, 1-(2-(4-(bicyclo[1.1.1]pentan-1-yl)-2-hydroxyphenyl)-5-(5-hydroxy-6-(trifluoromethyl)nicotinoyl)-2,3,4,5,5a,6,8,9-octahydro-7H-1,2,5,7-tetraazabenzo[cd]azulen-7-yl)prop-2-en-1-one] | 0.001 to 0.1 µM | > 3 µM
13 | < 0.0015 µM | 0.005 to 0.015 µM | C=CC(=O)N1CCc2nn(-c3ccc(C4CC4)cc3)c3c2C(C1)N(C(=O)c1ccc(Br)c2[nH]nc(N)c12)CC3 (stereo not drawn) [Compound 131, 1-(5-(3-amino-7-bromo-1H-indazole-4-carbonyl)-2-(4-cyclopropylphenyl)-2,3,4,5,5a,6,8,9-octahydro-7H-1,2,5,7-tetraazabenzo[cd]azulen-7-yl)prop-2-en-1-one] | 0.001 to 0.1 µM | > 3 µM
14 | 0.0015 to 0.005 µM | 0.0015 to 0.005 µM | C=CC(=O)N1CCc2nn(-c3ccc(C4CC4)cc3O)c3c2C(C1)N(C(=O)c1cnc(Br)c(F)c1N)CC3 (stereo not drawn) [Compound 202, 1-(5-(4-amino-6-bromo-5-fluoronicotinoyl)-2-(4-cyclopropyl-2-hydroxyphenyl)-2,3,4,5,5a,6,8,9-octahydro-7H-1,2,5,7-tetraazabenzo[cd]azulen-7-yl)prop-2-en-1-one] | 0.001 to 0.1 µM | > 3 µM
15 | 0.005 to 0.015 µM | 0.015 to 0.055 µM | C=CC(=O)N1CCc2nn(-c3ccc(C4CC4)c(F)c3O)c3c2C(C1)N(C(=O)c1cnc(OC(F)(F)F)c(F)c1N)CC3 (stereo not drawn) [Compound 258, 1-(5-(4-amino-5-fluoro-6-(trifluoromethoxy)nicotinoyl)-2-(4-cyclopropyl-3-fluoro-2-hydroxyphenyl)-2,3,4,5,5a,6,8,9-octahydro-7H-1,2,5,7-tetraazabenzo[cd]azulen-7-yl)prop-2-en-1-one] | 0.001 to 0.1 µM | > 3 µM
16 | < 0.0015 µM | 0.005 to 0.015 µM | C=CC(=O)N1CCc2nn(-c3ccc(C4CCC4)cc3O)c3c2C(C1)N(C(=O)c1cnc(C(F)(F)F)cc1N)CC3 (stereo not drawn) [Compound 138, 1-(5-(4-amino-6-(trifluoromethyl)nicotinoyl)-2-(4-cyclobutyl-2-hydroxyphenyl)-2,3,4,5,5a,6,8,9-octahydro-7H-1,2,5,7-tetraazabenzo[cd]azulen-7-yl)prop-2-en-1-one] | 0.001 to 0.1 µM | > 3 µM
17 | 0.005 to 0.015 µM | > 0.055 µM | COC/C=C/C(=O)N1CCc2nn(-c3ccc(C4CCC4)cc3O)c3c2C(C1)N(C(=O)c1cnc(C(F)(F)F)cc1N)CC3 (stereo not drawn) [Compound 239, 1-(5-(4-amino-6-(trifluoromethyl)nicotinoyl)-2-(4-cyclobutyl-2-hydroxyphenyl)-2,3,4,5,5a,6,8,9-octahydro-7H-1,2,5,7-tetraazabenzo[cd]azulen-7-yl)-4-methoxybut-2-en-1-one] | 0.1 to 0.25 µM | > 3 µM
18 | < 0.0015 µM | < 0.0015 µM | C=CC(=O)N1CC(OCc2ncco2)c2nn(-c3ccc(C4CC4)cc3)c3c2C(C1)N(C(=O)c1cnc(C(F)(F)F)cc1N)CC3 (stereo not drawn) [Compound 250, 1-(5-(4-amino-6-(trifluoromethyl)nicotinoyl)-2-(4-cyclopropylphenyl)-9-(oxazol-2-ylmethoxy)-2,3,4,5,5a,6,8,9-octahydro-7H-1,2,5,7-tetraazabenzo[cd]azulen-7-yl)prop-2-en-1-one] | 0.001 to 0.1 µM | > 3 µM
